How the values were obtained:
Alternaria solani = assay: in vivo preventive test on Alternaria solani (tomato); conditions: 500 ppm of active ingredient, evaluated 7 days after inoculation
Experimental: Solvent: 49 parts by weight of N,N-dimethylformamide Emulsifier: 1 part by weight of Alkylarylpolyglycolether To produce a suitable preparation of active compound, 1 part by weight of active compound is mixed with the stated amounts of solvent and emulsifier, and the concentrate is diluted with water to the desired concentration. To test for preventive activity, young plants are sprayed with the preparation of active compound at the stated rate of application. One day after this treatment, the plants are inoculated with an aqueous spore suspension of Alternaria solani. The plants remain for one day in an incubation cabinet at approximately 22° C. and a relative atmospheric humidity of 100%. Then the plants are placed in an incubation cabinet at approximately 20° C. and a relative atmospheric humidity of 96%. The test is evaluated 7 days after the inoculation. 0% means an efficacy which corresponds to that of the untreated control while an efficacy of 100% means that no disease is observed.

[1] = logP by HPLC on reversed-phase column (EEC Directive 79/831 Annex V.A8); type: physicochemical; conditions: 40° C., 0.1% aqueous formic acid and acetonitrile, linear gradient 10% to 90% acetonitrile
Experimental: In table 1, the logP values were determined in accordance with EEC Directive 79/831 Annex V.A8 by HPLC (High Performance Liquid Chromatography) on a reversed-phase column (C 18), using the method described below: Temperature: 40° C.; Mobile phases: 0.1% aqueous formic acid and acetonitrile; linear gradient from 10% acetonitrile to 90% acetonitrile. Calibration was carried out using unbranched alkan-2-ones (comprising 3 to 16 carbon atoms) with known logP values (determination of the logP values by the retention times using linear interpolation between two successive alkanones). lambda-max-values were determined using UV-spectra from 200 nm to 400 nm and the peak values of the chromatographic signals.

Sphaerotheca fuliginea = assay: in vivo preventive test on Sphaerotheca fuliginea (cucumber); conditions: 500 ppm of active ingredient, evaluated 7 days after inoculation
Experimental: Solvent: 49 parts by weight of N,N-dimethylformamide Emulsifier: 1 part by weight of Alkylarylpolyglycolether To produce a suitable preparation of active compound, 1 part by weight of active compound is mixed with the stated amounts of solvent and emulsifier, and the concentrate is diluted with water to the desired concentration. To test for preventive activity, young plants are sprayed with the preparation of active compound at the stated rate of application. One day after this treatment, the plants are inoculated with an aqueous spore suspension of Sphaerotheca fuliginea. Then the plants are placed in a greenhouse at approximately 23° C. and a relative atmospheric humidity of approximately 70%. The test is evaluated 7 days after the inoculation. 0% means an efficacy which corresponds to that of the untreated control, while an efficacy of 100% means that no disease is observed.

Pyrenophora teres = assay: in vivo preventive test on Pyrenophora teres (barley); conditions: 500 ppm of active ingredient, evaluated 7-9 days after inoculation
Experimental: (§1) Solvent: 49 parts by weight of N,N-dimethylformamide Emulsifier: 1 part by weight of alkylaryl polyglycol ether To produce a suitable preparation of active compound, 1 part by weight of active compound is mixed with the stated amounts of solvent and emulsifier, and the concentrate is diluted with water to the desired concentration. To test for preventive activity, young plants are sprayed with the preparation of active compound at the stated rate of application. One day after this treatment, the plants are inoculated with an aqueous spore suspension of Pyrenophora teres. The plants remain for 48 hours in an incubation cabinet at 22° C. and a relative atmospheric humidity of 100%. Then the plants are placed in a greenhouse at a temperature of approximately 20° C. and a relative atmospheric humidity of approximately 80%. The test is evaluated 7-9 days after the inoculation. 0% means an efficacy which corresponds to that of the untreated control while an efficacy of 100% means that no disease is observed.

Septoria tritici = assay: in vivo preventive test on Septoria tritici (wheat); conditions: 500 ppm of active ingredient, evaluated 21 days after inoculation
Experimental: Solvent: 49 parts by weight of N,N-dimethylacetamide Emulsifier: 1 part by weight of alkylaryl polyglycol ether To produce a suitable preparation of active compound, 1 part by weight of active compound or active compound combination is mixed with the stated amounts of solvent and emulsifier, and the concentrate is diluted with water to the desired concentration. To test for preventive activity, young plants are sprayed with the preparation of active compound or active compound combination at the stated rate of application. After the spray coating has been dried, the plants are sprayed with a spore suspension of Septoria tritici. The plants remain for 48 hours in an incubation cabinet at approximately 20° C. and a relative atmospheric humidity of approximately 100% and afterwards for 60 hours at approximately 15° C. in a translucent incubation cabinet at a relative atmospheric humidity of approximately 100%. The plants are placed in the greenhouse at a temperature of approximately 15° C. and a relative atmospheric humidity of approximately 80%. The test is evaluated 21 days after the inoculation. 0% means an efficacy which corresponds to that of the untreated control, while an efficacy of 100% means that no disease is observed.

Leptosphaeria nodorum = assay: in vivo preventive test on Leptosphaeria nodorum (wheat); conditions: 500 ppm of active ingredient, evaluated 7-9 days after inoculation
Experimental: as §1, with “weight of N,N-dimethylacetamide Emulsifier: 1” for “weight of N,N-dimethylformamide Emulsifier: 1”, “sprayed with a preparation of” for “sprayed with the preparation of”, “suspension of Leptosphaeria nodorum. The plants” for “suspension of Pyrenophora teres. The plants”, “of approximately 22° C. and” for “of approximately 20° C. and”, “of approximately 90%. The test” for “of approximately 80%. The test”, “the untreated control, while an” for “the untreated control while an”

[2] = tested on: Fusarium nivale (var. majus); assay: in vivo curative test on Fusarium nivale (wheat); conditions: 500 ppm of active ingredient, evaluated 5 days after inoculation
Experimental: Solvent: 49 parts by weight of N,N-dimethylacetamide Emulsifier: 1 part by weight of alkylaryl polyglycol ether To produce a suitable preparation of active compound, 1 part by weight of active compound or active compound combination is mixed with the stated amounts of solvent and emulsifier, and the concentrate is diluted with water to the desired concentration. To test for curative activity, young plants are slightly injured by using a sandblast and afterwards they are sprayed with a conidia suspension of Fusarium nivale (var. majus) and placed for 24 hours in a greenhouse under a translucent incubation cabinet at a temperature of approximately 10° C. and a relative atmospheric humidity of approximately 100% and are subsequently sprayed with the preparation of active compound at the stated rate of application. After the spray coating has been dried, the plants remain in the greenhouse under translucent incubation cloches at a temperature of approximately 10° C. and a relative atmospheric humidity of approximately 100%. The test is evaluated 5 days after the inoculation. 0% means an efficacy which corresponds to that of the untreated control, while an efficacy of 100% means that no disease is observed.

[3] = tested on: Blumeria graminis fsp. hordei; assay: in vivo preventive test on Blumeria graminis (barley); conditions: 500 ppm of active ingredient, evaluated 7 days after inoculation
Experimental: Solvent: 49 parts by weight of N,N-dimethylacetamide Emulsifier: 1 part by weight of alkylaryl polyglycol ether To produce a suitable preparation of active compound, 1 part by weight of active compound or active compound combination is mixed with the stated amounts of solvent and emulsifier, and the concentrate is diluted with water to the desired concentration. To test for preventive activity, young plants are sprayed with the preparation of active compound or active compound combination at the stated rate of application. After the spray coating has been dried, the plants are dusted with spores of Blumeria graminis fsp. hordei. The plants are placed in the greenhouse at a temperature of approximately 18° C. and a relative atmospheric humidity of approximately 80% to promote the development of mildew pustules. The test is evaluated 7 days after the inoculation. 0% means an efficacy which corresponds to that of the untreated control, while an efficacy of 100% means that no disease is observed.

[4] = HPLC on reversed-phase column (C 18)
[5] = HPLC, reversed-phase column (C 18)

logP [1, 4] | logP [1, 5] | SMILES | Efficacy (Alternaria solani) [%] | Efficacy (Sphaerotheca fuliginea) [%] | Efficacy (Pyrenophora teres) [%] | Efficacy (Septoria tritici) [%] | Efficacy (Leptosphaeria nodorum) [%] | Efficacy [2] [%] | Efficacy [3] [%]
2.59 | – | Cn1nc(C(F)F)c(C(=O)N(Cc2cccs2)C2CC2)c1F [Example 32] | 70 | 95 | 100 | – | – | – | –
2.96 | – | Cn1nc(C(F)F)c(C(=O)NC2(c3cccs3)CCCC2)c1F [Example 34] | – | 70 | – | – | – | – | –
3.62 | – | Cc1cc(C(C)N(C(=O)c2c(C(F)F)nn(C)c2F)C2CC2)c(C)s1 (centres unmarked) [Example 48] | 95 | – | 100 | 100 | 100 | 86 | 100
2.23 | – | CC(c1cccnc1Cl)N(C(=O)c1c(C(F)F)nn(C)c1F)C1CC1 (centres unmarked) [Example 50] | 95 | 100 | 100 | 71 | 71 | – | 89
3.11 | – | Cn1nc(C(F)F)c(C(=O)N(Cc2cc3ccccc3o2)C2CC2)c1F [Example 71] | – | – | 100 | 100 | 80 | 100 | 89
3.76 | – | Cn1nc(C(F)F)c(C(=S)N(Cc2cc3ccccc3o2)C2CC2)c1F [Example 73] | 90 | 85 | 100 | – | – | – | –
2.54 | – | Cn1nc(C(F)F)c(C(=O)N(Cc2c(Cl)cncc2Cl)C2CC2)c1F [Example 115] | 100 | 83 | 100 | 86 | 80 | 71 | –
3.29 | – | Cn1nc(C(F)F)c(C(=S)N(Cc2c(Cl)cncc2Cl)C2CC2)c1F [Example 117] | 100 | 95 | 100 | – | – | – | –
4.31 | – | Cc1c(CN(C(=S)c2c(C(F)F)nn(C)c2F)C2CC2)sc2ccccc12 [Example 124] | 100 | 98 | 100 | – | – | – | –
3.29 | – | Cc1nn(-c2ccccc2)nc1CN(C(=O)c1c(C(F)F)nn(C)c1F)C1CC1 [Example 131] | 90 | 97 | 95 | – | – | – | –
2.44 | – | Cn1nc(C(F)F)c(C(=O)N(Cc2ccnc3ccc(Cl)cc23)C2CC2)c1F [Example 137] | 80 | 90 | 100 | – | – | – | –
2.75 | – | Cc1nc(C(F)(F)F)c(CN(C(=O)c2c(C(F)F)nn(C)c2F)C2CC2)s1 [Example 140] | 80 | 100 | 100 | – | – | – | –
3.73 | – | Cn1nc(C(F)F)c(C(=O)N(Cc2csc3ccc(Cl)cc23)C2CC2)c1F [Example 143] | 95 | 95 | 100 | 100 | – | – | 94
4.36 | – | Cn1nc(C(F)F)c(C(=S)N(Cc2csc3ccc(Cl)cc23)C2CC2)c1F [Example 145] | 90 | 93 | 100 | – | – | – | –
3.46 | – | Cn1nc(C(F)F)c(C(=O)N(Cc2cc(-c3ccc(Cl)cc3)no2)C2CC2)c1F [Example 153] | 90 | – | 100 | – | – | – | –
3.46 | – | CSc1ncc(C(C(C)C)N(C)C(=O)c2c(C(F)F)nn(C)c2F)c(C(F)(F)F)n1 (centres unmarked) [Example 157] | 70 | – | 90 | – | – | – | –
4.26 | – | Cn1nc(C(F)F)c(C(=S)N(Cc2cc(C(F)(F)F)nc3ccccc23)C2CC2)c1F [Example 161] | – | 100 | 100 | – | – | – | –
3.39 | – | Cn1nc(C(F)F)c(C(=O)N(Cc2ccnc3cc(Cl)cc(Cl)c23)C2CC2)c1F [Example 163] | – | 100 | 94 | – | – | – | –
3.53 | – | Cn1nc(C(F)F)c(C(=O)N(Cc2cc(-c3cc(F)c(F)c(F)c3)no2)C2CC2)c1F [Example 165] | 100 | – | 100 | – | – | – | –
– | 3.85 | Cc1nc(-c2ccc(Cl)cc2)sc1CN(C(=O)c1c(C(F)F)nn(C)c1F)C1CC1 [Example 167] | 90 | – | 100 | – | – | – | –
– | 2.76 | Cn1nc(C(F)F)c(C(=O)N(Cc2c(C(F)(F)F)nn(C)c2OC(F)F)C2CC2)c1F [Example 170] | 95 | 88 | 100 | – | – | – | –

— patent US9320276B2, “N-hetarylmethyl pyrazolylcarboxamides” (BAYER INTELLECTUAL PROPERTY GMBH, priority 2010, dated 2016)
